{
  "source": "patent US20220192993A1",
  "about": "“DOSAGE FORMS AND METHODS OF PREPARATION AND USE THEREOF” (Willow Bark Brands, Inc., priority 2019, published 2022)",
  "origin": "cited, not measured here",
  "system": "brain alpha wave activity",
  "conditions": "reported effect, 'testing shows'",
  "data": [
    {"smiles": "CCNC(=O)CC[C@H](N)C(=O)O", "note": "[L-Theanine]", "values": [
      {"measurement": "brain alpha wave activity", "result": "L-Theanine increases"}
    ]}
  ]
}
